Read-outs that look alike come from different tables or passages of the source.
Tests used:
Cbl-b = Cbl-b (Homo sapiens, UniProt Q13191); assay: Cbl-b inhibition assay (Cbl-b activity assay, FRET, Biological Example 1; 100 mM NaCl, 60 nM Src kinase); format: biochemical; settings: upper bound stated in text lists; read-out: IC50 values in the Cbl-b inhibition assay of Biological Example 1
Procedure, shortened: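 FRET read-out: loss of signal marks inhibition. Mix = biotin-Avi-Cbl-b (N-term), Src kinase, UbcH5B-Ub(Bodipy-FL, irreversible conjugate), streptavidin-Tb, assay buffer.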

T-cell [1] = assay: IL-2 secretion from T-cells co-stimulated with anti-CD3 and anti-CD28 antibody (Biological Example 2); format: cell-based, human; settings: Homo sapiens, T-cell, primary human total T-cells, baseline = anti-CD3/anti-CD28 stimulated cells without inhibitor, read-out: IL-2 secretion, Anti-CD3/Anti-CD28 stimulation, fold change over baseline; for fold induction at 0.3 µM: 0.3 μM compound; for fold induction at 1 µM: 1 μM compound; for fold induction at 4 µM: 4 μM compound
Procedure, shortened: (§1)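 No assay protocol given; T-cells stimulated with anti-CD3 alone or anti-CD3 plus anti-CD28, with or without Cbl-b inhibitor. Activation read as IL-2 secretion or CD25 surface staining, expressed as fold over baseline from uninhibited cells […].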

T-cell [2] = assay: CD25 cell surface staining on T-cells co-stimulated with anti-CD3 and anti-CD28 antibody (Biological Example 2); format: cell-based, human; settings: Homo sapiens, T-cell, primary human total T-cells, baseline = anti-CD3/anti-CD28 stimulated cells without inhibitor, read-out: CD25 staining, Anti-CD3/Anti-CD28 stimulation, fold change over baseline; for fold induction at 0.3 µM: 0.3 μM compound; for fold induction at 1 µM: 1 μM compound; for fold induction at 4 µM: 4 μM compound
Procedure, shortened: as §1

primary human NK cells = assay: NK cell activation assessed by cytokine secretion (coculture with K562 NucRed target cells); format: cell-based; settings: for fold induction at 0.625 µM: 0.625 μM compound; for fold induction at 2.5 µM: 2.5 μM compound
Method: Peripheral blood mononuclear cells (PBMC) were obtained either: 1) by using Ficoll-Paque™ (GE Healthcare) for separation of peripheral blood hematopoietic cells from buffy coats of healthy human donors; or 2) directly from LeukoPak donations. […] The cells were cultured overnight with IL-2 (60 ng/mL) at 37° C. 5% CO2. Cbl-b inhibitors were added 1 hour prior to stimulation and incubated at 37° C. 5% CO2 at a specific concentration (e.g., 10 μM, 1 μM, or 0.1 μM) with a final DMSO concentration of <0.1%. NK cells were co-cultured with target cells that were engineered to have a red nucleus (K562 NucRed) measurable by flow cytometry. […] The cells were mixed at the indicated ratios (e.g., 5:1, 1:1, or 1:5) of NK (effector cells) to K562 NucRed (target cells) for 6 hours. Cell free supernatants were collected and analyzed for cytokine secretion (e.g. TNFα, IFNγ, or MIP1β) by ELISA or Luminex multiplex kits following the manufacturer's protocol. IFNγ secretion was assessed using an R&D Systems ELISA kit (Catalog #DY285), TNFα secretion was assessed using an R&D Systems ELISA kit (Catalog #DY210), and MIP1β secretion was assessed using an R&D Systems ELISA kit (Catalog #DY271).
Readouts were reported as fold change over baseline. Baseline for this study was the measurement obtained from primary human NK effector cells cocultured with K562 NucRed target cells in the absence of a Cbl-b inhibitor. For NK cells cocultured with K562 NucRed cells, changes greater than 2.0-fold over baseline for cytokine secretion were considered a positive response (Table 10a and 10b).

[3] = K562, NK cells cocultured with K562 NucRed, 1:1 E/T, read-out: IFNγ secretion, fold change over baseline
[4] = K562, NK cells cocultured with K562 NucRed, 1:1 E/T, read-out: TNFα secretion, fold change over baseline
[5] = K562, NK cells cocultured with K562 NucRed, 1:1 E/T, 10 μM compound, read-out: IFNγ secretion, fold change over baseline
[6] = K562, NK cells cocultured with K562 NucRed, 1:1 E/T, 10 μM compound, read-out: TNFα secretion, fold change over baseline

Sequence of Cbl-b (Q13191 36-427): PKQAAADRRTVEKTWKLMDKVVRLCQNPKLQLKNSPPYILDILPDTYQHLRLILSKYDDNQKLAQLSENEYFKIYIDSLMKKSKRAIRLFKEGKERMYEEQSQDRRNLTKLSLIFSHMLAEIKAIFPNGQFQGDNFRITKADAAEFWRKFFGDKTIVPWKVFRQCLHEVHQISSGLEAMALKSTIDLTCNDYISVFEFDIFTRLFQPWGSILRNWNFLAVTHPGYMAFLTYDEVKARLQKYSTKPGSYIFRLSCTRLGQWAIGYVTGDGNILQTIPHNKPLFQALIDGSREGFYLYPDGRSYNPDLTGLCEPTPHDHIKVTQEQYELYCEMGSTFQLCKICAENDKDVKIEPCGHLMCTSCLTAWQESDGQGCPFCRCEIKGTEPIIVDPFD

| Structure (SMILES) | IC50 (Cbl-b) [nM] | fold induction at 0.3 µM (T-cell [1]) | fold induction at 1 µM (T-cell [1]) | fold induction at 4 µM (T-cell [1]) | fold induction at 0.3 µM (T-cell [2]) | fold induction at 1 µM (T-cell [2]) | fold induction at 4 µM (T-cell [2]) | fold induction at 0.625 µM (primary human NK cells; [3]) | fold induction at 0.625 µM (primary human NK cells; [4]) | fold induction at 2.5 µM (primary human NK cells; [3]) | fold induction at 2.5 µM (primary human NK cells; [4]) | fold induction at 10 µM (primary human NK cells; [5]) | fold induction at 10 µM (primary human NK cells; [6]) | other results |
| --- | --- | --- | --- | --- | --- | --- | --- | --- | --- | --- | --- | --- | --- | --- |
| Cn1cnnc1CC1(c2cccc(N3Cc4c(cc(CN5CC(F)C5)cc4C(F)(F)F)C3=O)c2)COC1 [Compound 415, 6-((3-fluoroazetidin-1-yl)methyl)-2-(3-(3-((4-methyl-4H-1,2,4-triazol-3-yl)methyl)oxetan-3-yl)phenyl)-4-(trifluoromethyl)isoindolin-1-one] | ≤ 100 | 5 to 7.5 | > 7.5 | > 7.5 | 1.31 to 1.5 | 1.31 to 1.5 | 1.51 to 1.75 | 2.01 to 5 | 1.01 to 2 | 2.01 to 5 | 2.01 to 5 | > 5 | 2.01 to 5 |  |
| Cn1cnnc1CC1(c2cccc(N3Cc4c(cc(CN5CCC6(CC6)C5)cc4C(F)(F)F)C3=O)c2)COC1 [Compound 520, 6-((5-azaspiro[2.4]heptan-5-yl)methyl)-2-(3-(3-((4-methyl-4H-1,2,4-triazol-3-yl)methyl)oxetan-3-yl)phenyl)-4-(trifluoromethyl)isoindolin-1-one] | ≤ 100 | > 7.5 | > 7.5 |  | 1.31 to 1.5 | 1.31 to 1.5 |  | > 5 | 2.01 to 5 | > 5 | > 5 | > 5 | 2.01 to 5 |  |
| Cn1cnnc1CC1(c2cccc(NC(=O)c3cc(CN4CCC5(CC5)C4)cc(C4CC4)n3)c2)COC1 [Compound 519, 4-((5-azaspiro[2.4]heptan-5-yl)methyl)-6-cyclopropyl-N-(3-(3-((4-methyl-4H-1,2,4-triazol-3-yl)methyl)oxetan-3-yl)phenyl)picolinamide] | ≤ 100 | > 7.5 | > 7.5 |  | 1.31 to 1.5 | 1.31 to 1.5 |  | > 5 | > 5 | > 5 | 1.01 to 2 | > 5 | 2.01 to 5 |  |
| C[C@H](Cc1nncn1C)c1cccc(N2Cc3c(cc(CN4CC[C@](C)(O)C4)cc3C(F)(F)F)C2=O)c1 [Compound 398, 6-(((S)-3-hydroxy-3-methylpyrrolidin-1-yl)methyl)-2-(3-((R)-1-(4-methyl-4H-1,2,4-triazol-3-yl)propan-2-yl)phenyl)-4-(trifluoromethyl)isoindolin-1-one] | ≤ 100 | 2.51 to 5 | 5 to 7.5 | > 7.5 | 1.01 to 1.3 | 1.31 to 1.5 | 1.31 to 1.5 | 2.01 to 5 | 1.01 to 2 | 2.01 to 5 | 2.01 to 5 | > 5 | 2.01 to 5 |  |
| Cn1cnnc1CC1(c2cccc(N3Cc4c(cc(CN5CC[C@H](C#N)C5)cc4C(F)(F)F)C3=O)c2)COC1 [Compound 422, (S)-1-((2-(3-(3-((4-methyl-4H-1,2,4-triazol-3-yl)methyl)oxetan-3-yl)phenyl)-3-oxo-7-(trifluoromethyl)isoindolin-5-yl)methyl)pyrrolidine-3-carbonitrile] | ≤ 100 | 5 to 7.5 | > 7.5 | > 7.5 | 1.31 to 1.5 | 1.31 to 1.5 | 1.31 to 1.5 | 1.01 to 2 | 1.01 to 2 | 2.01 to 5 | 1.01 to 2 | 2.01 to 5 | 2.01 to 5 |  |
| Cn1cnnc1C(F)(F)[C@](C)(F)c1cccc(N2Cc3c(cc(C(=O)N4CC[C@H](O)C4)cc3C(F)(F)F)C2=O)c1 [Compound 438, 6-((S)-3-hydroxypyrrolidine-1-carbonyl)-2-(3-((R)-1,1,2-trifluoro-1-(4-methyl-4H-1,2,4-triazol-3-yl)propan-2-yl)phenyl)-4-(trifluoromethyl)isoindolin-1-one] | ≤ 100 | 1.01 to 2.5 | 2.51 to 5 | > 7.5 | 1.01 to 1.3 | 1.01 to 1.3 | 1.31 to 1.5 | 1.01 to 2 | 1.01 to 2 | 1.01 to 2 | 1.01 to 2 | 2.01 to 5 | 1.01 to 2 | fold induction at 1 µM (primary human NK cells; K562, 1:1 E/T, read-out: IFNγ secretion): < 1; fold induction at 1 µM (primary human NK cells; K562, 1:1 E/T, read-out: MIP1β secretion): < 1; fold induction at 1 µM (primary human NK cells; K562, 1:1 E/T, read-out: TNFα secretion): 1.01 to 2; fold induction at 10 µM (primary human NK cells; K562, 1:1 E/T, 10 μM, read-out: IFNγ secretion): < 1; fold induction at 10 µM (primary human NK cells; K562, 1:1 E/T, 10 μM, read-out: MIP1β secretion): < 1; fold induction at 10 µM (primary human NK cells; K562, 1:1 E/T, 10 μM, read-out: TNFα secretion): 1.01 to 2; fold induction at 1 µM (primary human NK cells; K562, 5:1 E/T, read-out: IFNγ secretion): < 1; fold induction at 1 µM (primary human NK cells; K562, 5:1 E/T, read-out: MIP1β secretion): < 1; fold induction at 1 µM (primary human NK cells; K562, 5:1 E/T, read-out: TNFα secretion): 1.01 to 2; fold induction at 10 µM (primary human NK cells; K562, 5:1 E/T, 10 μM, read-out: IFNγ secretion): 1.01 to 2; fold induction at 10 µM (primary human NK cells; K562, 5:1 E/T, 10 μM, read-out: MIP1β secretion): 1.01 to 2; fold induction at 10 µM (primary human NK cells; K562, 5:1 E/T, 10 μM, read-out: TNFα secretion): 1.01 to 2 |
| Cn1cnnc1CC1(c2cccc(N3Cc4c(cc(CN5CC6(CC6)C5)cc4C(F)(F)F)C3=O)c2)COC1 [Compound 487, 6-{5-azaspiro[2.3]hexan-5-ylmethyl}-2-(3-{3-[(4-methyl-1,2,4-triazol-3-yl)methyl]oxetan-3-yl}phenyl)-4-(trifluoromethyl)-3H-isoindol-1-one] | ≤ 100 | > 7.5 | > 7.5 |  | 1.31 to 1.5 | 1.31 to 1.5 |  |  |  |  |  |  |  |  |
